Test results from patent US20060078874A1, “Use of nuclear hormone receptors” (Novo Nordisk A/S, priority 2002, published 2006).

Columns and labels:
naked oocytes (NO) [1] = experiment: Agonistic oocyte assay, naked oocytes (NO / NkO test); format: cell-based, mouse; settings: for % GVBD + PB: NkO test
Protocol: (§1) An Agonistic Oocyte Assay Can be Performed as Follows: Oocytes were obtained from immature female mice (C57BL/6J×DBA/2J F1-hybrid, Bomholtgaard, Denmark) weighing 13-16 grams, that were kept under controlled temperature (20-22° C.), light (lights on 06.00-18.00) and relative humidity (50-70%). The mice received an intra-peritoneal injection of 0.2 ml gonadotropins (Gonal-F, Serono) containing 20 IU FSH and 48 hours later the animals were killed by cervical dislocation. The ovaries were dissected out and the oocytes were isolated in Hx-medium (see below) under a stereo microscope by manual rupture of the follicles using a pair of 27 gauge needles. Spherical oocytes displaying an intact germinal vesicle (hereinafter designated GV) were divided in cumulus enclosed oocytes (hereinafter designated CEO) and naked oocytes (hereinafter designated NO) and placed in α-minimum essential medium (α-MEM without ribonucleosides, Gibco BRL, Cat. No. 22561) supplemented with 3 mg/ml bovine serum albumin (BSA, Sigma Cat. No. A-7030), 5 mg/ml human serum albumin (HSA, Statens Seruminstitute, Denmark), 0.23 mM pyruvate (Sigma, Cat. No S-8636), 2 mM glutamine (Flow Cat. No. 16-801), 100 IU/ml penicillin and 100 μg/ml streptomycin (Flow, Cat No. 16-700). This medium was supplemented with 3 mM hypoxanthine (Sigma Cat. No. H-9377) and designated Hx-medium. The oocytes were rinsed three times in Hx-medium and oocytes of uniform size were divided into groups of CEO and NO. CEO and NO were cultured in 4-well multidishes (Nunclon, Denmark) in which each well contained 0.4 ml of Hx-medium. One control well (i.e., 35-45 oocytes cultured in identical medium with no addition of test compound) was always cultured simultaneously with 3 test wells (35-45 oocytes per well supplemented with test compound). The oocytes were cultured in a humidified atmosphere of 5% CO2 in air for 24 hours at 37° C. By the end of the culture period, the number of oocytes with germinal vesicle (hereinafter designated GV), GVBD, and polar body (herein designated PB), respectively, were counted using a stereomicroscope ([…] MZ 12). The percentage GVBD, defined as percentage of oocytes undergoing GVBD per total number of oocytes in that well, was calculated as: % GVBD=100×(number of GVBD+number of PB)/(total number oocytes). The % PB was defined as percentage of oocytes displaying one extruded polar body per total number of oocytes in that well. […] The relative effect of the tested compound is calculated as follows: Relative effect=100×((test GVBD %-negative control GVBD %)/(FF-MAS GVBD %-negative control GVBD %)).

[2] = system: cumulus enclosed oocytes (CEO); experiment: Oocyte maturation assay, cumulus enclosed oocytes (CEO test); format: cell-based, mouse
Protocol: as §1

LXRα [3] = target: T1, LXRα (Homo sapiens, UniProt Q13133); experiment: Recruitment of co-factors to LXRα (HTRF assay); format: biochemical
T1 sequence (Q13133 1-447): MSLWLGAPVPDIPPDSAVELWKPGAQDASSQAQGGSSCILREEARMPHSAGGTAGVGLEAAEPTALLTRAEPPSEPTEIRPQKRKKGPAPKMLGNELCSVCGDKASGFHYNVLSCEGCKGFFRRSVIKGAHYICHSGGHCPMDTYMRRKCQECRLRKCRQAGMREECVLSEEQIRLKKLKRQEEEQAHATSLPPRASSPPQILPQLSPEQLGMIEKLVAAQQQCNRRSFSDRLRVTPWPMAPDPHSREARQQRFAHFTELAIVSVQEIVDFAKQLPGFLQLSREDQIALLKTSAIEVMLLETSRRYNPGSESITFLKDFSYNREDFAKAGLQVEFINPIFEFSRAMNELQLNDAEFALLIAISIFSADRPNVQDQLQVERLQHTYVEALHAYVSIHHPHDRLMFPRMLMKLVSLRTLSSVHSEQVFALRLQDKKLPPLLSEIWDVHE
From the text: (§2) The HTRF assay is described in Methods 25 (2001), 54-61. (HTRF is an abbreviation for homogeneous time-resolved fluorescence.)
(§3) The EC50 value is the dose which leads to a 50% saturation.

LXRβ [4] = target: T2, LXRβ (Homo sapiens, UniProt P55055); experiment: Recruitment of co-factors to LXRβ (HTRF assay); format: biochemical
T2 sequence (P55055 1-460): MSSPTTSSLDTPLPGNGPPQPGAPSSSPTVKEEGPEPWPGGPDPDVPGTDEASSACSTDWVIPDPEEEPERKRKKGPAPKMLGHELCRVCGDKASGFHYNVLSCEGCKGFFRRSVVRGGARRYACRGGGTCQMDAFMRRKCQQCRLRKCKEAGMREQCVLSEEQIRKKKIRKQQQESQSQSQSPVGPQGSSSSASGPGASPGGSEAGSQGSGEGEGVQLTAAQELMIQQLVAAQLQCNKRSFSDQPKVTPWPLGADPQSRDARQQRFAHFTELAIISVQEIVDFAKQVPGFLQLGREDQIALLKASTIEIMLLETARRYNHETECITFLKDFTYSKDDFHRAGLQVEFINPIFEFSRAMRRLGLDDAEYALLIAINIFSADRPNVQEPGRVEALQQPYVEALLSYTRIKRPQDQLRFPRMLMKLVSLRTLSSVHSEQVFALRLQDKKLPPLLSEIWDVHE
From the text: as §2, §3

FXRalpha = target: T3, FXRalpha (Homo sapiens, UniProt Q96RI1); experiment: FFMAS on human FXRalpha (FIG. 2); format: biochemical
T3 sequence (Q96RI1 1-486): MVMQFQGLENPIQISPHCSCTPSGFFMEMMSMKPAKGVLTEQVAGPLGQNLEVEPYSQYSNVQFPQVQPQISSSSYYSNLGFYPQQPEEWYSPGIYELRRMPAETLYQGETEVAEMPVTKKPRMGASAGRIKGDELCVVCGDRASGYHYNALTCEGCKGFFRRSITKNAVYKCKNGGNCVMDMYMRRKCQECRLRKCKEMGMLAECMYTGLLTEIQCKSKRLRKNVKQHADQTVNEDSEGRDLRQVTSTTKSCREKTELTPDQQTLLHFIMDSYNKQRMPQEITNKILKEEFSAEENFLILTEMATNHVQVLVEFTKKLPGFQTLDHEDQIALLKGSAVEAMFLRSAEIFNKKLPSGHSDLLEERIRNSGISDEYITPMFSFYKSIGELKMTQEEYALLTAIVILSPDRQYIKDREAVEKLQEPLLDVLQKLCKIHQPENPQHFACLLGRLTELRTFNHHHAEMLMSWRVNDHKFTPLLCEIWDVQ

FXRbeta = experiment: FFMAS on mouse FXRbeta (FIG. 3); format: biochemical
LXRα [5] = target: T1, LXRα; settings: Janowski et al. Nature 383 (1996); no direct binding explored; cited from earlier work
naked oocytes (NO) [6] = settings: Byskov et al. Nature 374 (1995); cited from earlier work
LXRα [7] = target: T1, LXRα; experiment: Agonist activity against LXRα
LXRβ [8] = target: T2, LXRβ; experiment: Agonist activity against LXRβ
PXR = target: T4, PXR (Homo sapiens, UniProt O75469); experiment: Agonist activity against PXR
T4 sequence (O75469 1-434): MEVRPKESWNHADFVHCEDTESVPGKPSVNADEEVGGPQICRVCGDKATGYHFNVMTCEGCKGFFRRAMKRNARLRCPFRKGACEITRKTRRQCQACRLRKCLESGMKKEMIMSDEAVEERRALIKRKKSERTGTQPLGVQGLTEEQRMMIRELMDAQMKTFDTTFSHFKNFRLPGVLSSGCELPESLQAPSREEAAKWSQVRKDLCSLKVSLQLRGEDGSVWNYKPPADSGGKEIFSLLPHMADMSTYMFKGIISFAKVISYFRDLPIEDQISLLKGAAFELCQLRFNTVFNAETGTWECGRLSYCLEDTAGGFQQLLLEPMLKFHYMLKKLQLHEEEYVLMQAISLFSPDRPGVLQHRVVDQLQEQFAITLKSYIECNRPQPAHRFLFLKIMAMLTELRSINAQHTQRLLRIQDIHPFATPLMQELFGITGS

[9] = 10 μM, naked oocytes (NO) cultured in vitro for 24 hours in Hx-medium
[10] = dose which leads to 50% saturation

## CC(C)=CCC[C@@H](C)[C@H]1CC=C2C3=C(CC[C@@]21C)[C@@]1(C)CC[C@H](O)C(C)(C)[C@@H]1CC3 [FF-MAS, 4,4-dimethyl-5α-cholesta-8,14,24-triene-3β-ol]
Naked oocytes (NO) [1]; 10 μM, NO, 24 hours, indexed: control 0, FF-MAS 100
  Mean Relative Effect: 100
Naked oocytes (NO) [1]; [9]
  Mean % GVBD: 86.1%
  Mean % PB: 28.5%
Naked oocytes (NO) [1]; Hx + 10 μM
  % GVBD + PB: 90 ± 8%
[2]; Hx + 10 μM
  % GVBD + PB: 78 ± 9%
LXRα [3]; FIGS. 1A and 1B
  Behaviour on human LXRs (LXRα): agonist
LXRα [3]; [10]
  EC50: ~67 nM
LXRβ [4]; FIGS. 1A and 1B
  Behaviour on human LXRs (LXRβ): agonist
LXRβ [4]; [10]
  EC50: ~21 nM
FXRalpha
  Behaviour on human FXRalpha: partial agonist
FXRbeta
  Behaviour on mouse FXRbeta: partial agonist
LXRα [5]
  Transactivation of LXRα: able to transactivate LXRα
Naked oocytes (NO) [6]
  Induction of meiosis in NO in vitro: induce meiosis

## O=C(O)Cc1cccc(OCCCN(Cc2cccc(C(F)(F)F)c2Cl)CC(c2ccccc2)c2ccccc2)c1 [90-8684, 2-(3-{3-[[2-chloro-3-(trifluoromethyl)benzyl](2,2-diphenylethyl)amino]propoxy}phenyl)acetic acid]
Naked oocytes (NO) [1]; Hx + 5 μM
  % GVBD + PB: 45 ± 5%
Naked oocytes (NO) [1]; Hx + 10 μM
  % GVBD + PB: 49 ± 8%
Naked oocytes (NO) [1]; Hx + 15 μM
  % GVBD + PB: 54 ± 5%
Naked oocytes (NO) [1]; mouse oocytes, NkO and CEO tests
  Meiosis-inducing effect in an oocyte maturation assay: dose-dependent maturation of the oocytes
[2]; Hx + 2.5 μM
  % GVBD + PB: 69 ± 3%
[2]; Hx + 5 μM
  % GVBD + PB: 71 ± 6%
[2]; Hx + 10 μM
  % GVBD + PB: 86 ± 7%
LXRα [7]
  Activity against LXRα: showed activity
LXRβ [8]
  Activity against LXRβ: showed activity
PXR
  Activity against PXR: showed activity
